This passage reports IC50 results from patent publication US11987588B2, “Modulators of the beta-3 adrenergic receptor useful for the treatment or prevention of heart failure and disorders related thereto” (Arena Pharmaceuticals, Inc., priority 2017, dated 2024).

The structures appear in SMILES notation. pIC50: −log10 of the molar value.

The target of this test is Beta-3 Adrenergic Receptor (Homo sapiens (Human), UniProt P13945). The test can be described thus: Homogeneous Time-Resolved Fluorescence (HTRF) cAMP antagonist assay, IC50 determination. The format is cell-based. The following applies: CHO-K1 cells stably expressing recombinant receptor, isoproterenol at EC90. The method, then: HTRF cAMP assays were performed according to manufacturer's instructions (Cisbio, cAMP Dynamic 2 Assay Kit; #62AM4PEJ). CHO-K1 cells stably expressing recombinant receptor were harvested and suspended in warm PBS to make a 300,000 cells/mL stock. This cell suspension was dispensed into 384 well assay plates (PerkinElmer ProxiPlate #6008280) at 5 μL per well (1500 cells/well) along with a cAMP standard curve.
Sequence of Beta-3 Adrenergic Receptor (P13945 whole entry, species assumed): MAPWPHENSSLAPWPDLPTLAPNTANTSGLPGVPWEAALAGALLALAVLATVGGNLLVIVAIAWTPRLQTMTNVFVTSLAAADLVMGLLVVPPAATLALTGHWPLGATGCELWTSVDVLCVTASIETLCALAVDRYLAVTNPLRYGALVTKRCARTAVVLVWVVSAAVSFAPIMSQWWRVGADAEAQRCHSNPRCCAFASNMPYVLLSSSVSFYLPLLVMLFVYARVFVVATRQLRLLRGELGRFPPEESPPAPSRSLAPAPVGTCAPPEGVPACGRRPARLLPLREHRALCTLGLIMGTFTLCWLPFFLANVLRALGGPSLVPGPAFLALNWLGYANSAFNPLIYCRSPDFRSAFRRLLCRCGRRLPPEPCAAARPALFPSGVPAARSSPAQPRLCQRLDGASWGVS
Compounds were dissolved and serially diluted (5-fold) in DMSO to generate a 10-point dose response stock. The stock was then diluted 100-fold in assay buffer (PBS containing 1 mM IBMX) before a volume of 2.5 μL was added to the cells (the final, top concentration of compound in the dose-response is typically 10 or 100 μM). After a brief incubation, 2.5 μL of isoproterenol stock, prepared at a concentration 4 times its EC90 at the receptor of interest, was added to the wells. The EC90 for isoproterenol, a beta-adrenergic agonist, was determined in separate experiments using standard methods to measure agonist potencies.
Following a 1-hour incubation at room temperature, 5 μL of cAMP-D2 Reagent diluted in Lysis Buffer was added to each well followed by 5 μL of Cryptate Reagent. Plates were further incubated at room temperature for 1 hour prior to reading. Time resolved fluorescence measurements were collected on a suitable, HTRF-capable plate reader.
Counts from the plate reader were fit to the cAMP standard curve on the assay plate in order to determine cAMP concentrations in each well, and these values were used to construct dose-response curves to obtain IC50 values.

Regarding `CNS(=O)(=O)c1cccc(OC[C@@H](O)CNC2COC3(CCN(S(=O)(=O)c4cccc(-c5ccc(CNC(C)C)cc5)c4)CC3)C2)c1` (stereo partly drawn) [Compound 303, 3-((2S)-2-hydroxy-3-(8-(4′-((isopropylamino)methyl)biphenyl-3-ylsulfonyl)-1-oxa-8-azaspiro[4.5]decan-3-ylamino)propoxy)-N-methylbenzenesulfonamide], the negative-log IC50 (pIC50) is 7.49. The value for `CNS(=O)(=O)c1cccc(OC[C@@H](O)CN[C@@H]2COC3(CCN(S(=O)(=O)c4ccc5c(c4)N(C)CCO5)CC3)C2)c1` [Compound 299, 3-((S)-2-hydroxy-3-((S)-8-(4-methyl-3,4-dihydro-2H-benzo[b][1,4]oxazin-6-ylsulfonyl)-1-oxa-8-azaspiro[4.5]decan-3-ylamino)propoxy)-N-methylbenzenesulfonamide] was 7.93; that for `CNS(=O)(=O)c1cccc(OC[C@@H](O)CN[C@H]2COC3(CCN(S(=O)(=O)c4cnc5c(c4)N(C)CCO5)CC3)C2)c1` [Compound 414, 3-((S)-2-hydroxy-3-((R)-8-(1-methyl-2,3-dihydro-1H-pyrido[2,3-b][1,4]oxazin-7-ylsulfonyl)-1-oxa-8-azaspiro[4.5]decan-3-ylamino)propoxy)-N-methylbenzenesulfonamide] was 7.77. The value for `CNS(=O)(=O)c1cccc(OC[C@@H](O)CN[C@H]2COC3(CCN(S(=O)(=O)c4cccc(-c5cc[nH]n5)c4)CC3)C2)c1` [Compound 296, 3-((S)-3-((R)-8-(3-(1H-pyrazol-3-yl)phenylsulfonyl)-1-oxa-8-azaspiro[4.5]decan-3-ylamino)-2-hydroxypropoxy)-N-methylbenzenesulfonamide] was 7.76; that for `CCNCc1ccc(-c2cccc(S(=O)(=O)N3CCC4(CC3)CC(NC[C@H](O)COc3cccc(S(=O)(=O)NC)c3)CO4)c2)cc1` (stereo partly drawn) [Compound 302, 3-((2S)-3-(8-(4′-((ethylamino)methyl)biphenyl-3-ylsulfonyl)-1-oxa-8-azaspiro[4.5]decan-3-ylamino)-2-hydroxypropoxy)-N-methylbenzenesulfonamide] was 6.34. In the case of `CNS(=O)(=O)c1cccc(OC[C@@H](O)CNC2COC3(CCN(S(=O)(=O)c4cccc(-c5ccc(NCCN6CCOCC6)nc5)c4)CC3)C2)c1` (stereo partly drawn) [Compound 371, 3-((2S)-2-hydroxy-3-(8-(3-(6-(2-morpholinoethylamino)pyridin-3-yl)phenylsulfonyl)-1-oxa-8-azaspiro[4.5]decan-3-ylamino)propoxy)-N-methylbenzenesulfonamide] it was 7.38; in that of `Cc1c(S(=O)(=O)N2CCC3(CC2)CC(NC[C@H](O)COc2cccc(S(=O)(=O)N(C)C)c2)CO3)cnn1-c1ccccc1` (stereo partly drawn) [Compound 252, 3-((2S)-2-hydroxy-3-(8-(5-methyl-1-phenyl-1H-pyrazol-4-ylsulfonyl)-1-oxa-8-azaspiro[4.5]decan-3-ylamino)propoxy)-N,N-dimethylbenzenesulfonamide], 7.53; in that of `CCOc1ccc(-c2ccc(CNC(C)C)cc2)cc1S(=O)(=O)N1CCC2(CC1)C[C@H](NC[C@H](O)COc1cccc(S(=O)(=O)NC)c1)CO2` [Compound 438, 3-((S)-3-((S)-8-(4-ethoxy-4′-((isopropylamino)methyl)biphenyl-3-ylsulfonyl)-1-oxa-8-azaspiro[4.5]decan-3-ylamino)-2-hydroxypropoxy)-N-methylbenzenesulfonamide], 7.69. In the case of `CC(C)NCc1ccc(-c2cccc(S(=O)(=O)N3CCC4(CC3)C[C@@H](NC[C@H](O)COc3cccc(S(N)(=O)=O)c3)CO4)c2)cc1` [Compound 440, 3-((S)-2-hydroxy-3-((R)-8-(4′-((isopropylamino)methyl)biphenyl-3-ylsulfonyl)-1-oxa-8-azaspiro[4.5]decan-3-ylamino)propoxy)benzenesulfonamide], the negative logarithm of the IC50 (pIC50) was 6.95. In the case of `CNS(=O)(=O)c1cccc(OC[C@@H](O)CNC2COC3(CCN(S(=O)(=O)c4cc(-c5ccc(CN)cc5)ccc4OC)CC3)C2)c1` (stereo partly drawn) [Compound 357, 3-((2S)-3-(8-(4′-(aminomethyl)-4-methoxybiphenyl-3-ylsulfonyl)-1-oxa-8-azaspiro[4.5]decan-3-ylamino)-2-hydroxypropoxy)-N-methylbenzenesulfonamide] it was 7.80; in that of `C[C@H](CO)NS(=O)(=O)c1cccc(OC[C@@H](O)CN[C@@H]2COC3(CCN(S(=O)(=O)c4cccc(-c5ccc(CN)cc5)c4)CC3)C2)c1` [Compound 424, 3-((S)-3-((S)-8-(4′-(aminomethyl)biphenyl-3-ylsulfonyl)-1-oxa-8-azaspiro[4.5]decan-3-ylamino)-2-hydroxypropoxy)-N—((R)-1-hydroxypropan-2-yl)benzenesulfonamide], 7.29. As for `CCNS(=O)(=O)c1cccc(OC[C@@H](O)CN[C@H]2COC3(CCN(S(=O)(=O)c4cnc5c(c4)N(C)CCO5)CC3)C2)c1` [Compound 456, N-ethyl-3-((S)-2-hydroxy-3-((R)-8-(1-methyl-2,3-dihydro-1H-pyrido[2,3-b][1,4]oxazin-7-ylsulfonyl)-1-oxa-8-azaspiro[4.5]decan-3-ylamino)propoxy)benzenesulfonamide], the pIC50 is 7.79.

For the compound `CNS(=O)(=O)c1cccc(OC[C@@H](O)CNC2COC3(CCN(S(=O)(=O)c4ccc5nsnc5c4)CC3)C2)c1` (stereo partly drawn) [Compound 177, 3-((2S)-3-(8-(benzo[c][1,2,5]thiadiazol-5-ylsulfonyl)-1-oxa-8-azaspiro[4.5]decan-3-ylamino)-2-hydroxypropoxy)-N-methylbenzenesulfonamide], the pIC50 is 7.92.

Consider `CNS(=O)(=O)c1cccc(OC[C@@H](O)CNC2COC3(CCN(S(=O)(=O)c4cccc(-c5ccc(/C(N)=N/O)cc5)c4)CC3)C2)c1` (stereo partly drawn) [Compound 379, (Z)-N′-hydroxy-3′-(3-((S)-2-hydroxy-3-(3-(N-methylsulfamoyl)phenoxy)propylamino)-1-oxa-8-azaspiro[4.5]decan-8-ylsulfonyl)biphenyl-4-carboximidamide], for which the pIC50 is 7.95. Regarding `CNS(=O)(=O)c1cccc(OC[C@@H](O)CN[C@H]2COC3(CCN(S(=O)(=O)c4ccc(OC)c(-c5ccc(C6(N)CC6)cc5)c4)CC3)C2)c1` [Compound 464, 3-((S)-3-((R)-8-(4′-(1-aminocyclopropyl)-6-methoxybiphenyl-3-ylsulfonyl)-1-oxa-8-azaspiro[4.5]decan-3-ylamino)-2-hydroxypropoxy)-N-methylbenzenesulfonamide], the negative-log IC50 (pIC50) was 7.86. As to `CNS(=O)(=O)c1cccc(OC[C@@H](O)CNC2COC3(CCN(S(=O)(=O)c4ccccc4OC)CC3)C2)c1` (stereo partly drawn) [Compound 398, 3-((2S)-2-hydroxy-3-(8-(2-methoxyphenylsulfonyl)-1-oxa-8-azaspiro[4.5]decan-3-ylamino)propoxy)-N-methylbenzenesulfonamide], the pIC50 is 7.29.

In the case of `CNS(=O)(=O)c1cccc(OC[C@@H](O)CNC2COC3(CCN(S(=O)(=O)c4cc(S(C)(=O)=O)ccc4Cl)CC3)C2)c1` (stereo partly drawn) [Compound 203, 3-((2S)-3-(8-(2-chloro-5-(methylsulfonyl)phenylsulfonyl)-1-oxa-8-azaspiro[4.5]decan-3-ylamino)-2-hydroxypropoxy)-N-methylbenzenesulfonamide], the pIC50 is 7.83. For `CNS(=O)(=O)c1cccc(OC[C@@H](O)CNC2COC3(CCN(S(=O)(=O)c4cn[nH]c4)CC3)C2)c1` (stereo partly drawn) [Compound 131, 3-((2S)-3-(8-(1H-pyrazol-4-ylsulfonyl)-1-oxa-8-azaspiro[4.5]decan-3-ylamino)-2-hydroxypropoxy)-N-methylbenzenesulfonamide], the pIC50 was 7.07. In the case of `CNS(=O)(=O)c1cccc(OC[C@@H](O)CNC2COC3(CCN(S(=O)(=O)c4cc(C)ccc4C)CC3)C2)c1` (stereo partly drawn) [Compound 154, 3-((2S)-3-(8-(2,5-dimethylphenylsulfonyl)-1-oxa-8-azaspiro[4.5]decan-3-ylamino)-2-hydroxypropoxy)-N-methylbenzenesulfonamide] it was 7.46; in that of `CNS(=O)(=O)c1cccc(OC[C@@H](O)CNC2COC3(CCN(S(=O)(=O)c4cc5ccccc5o4)CC3)C2)c1` (stereo partly drawn) [Compound 326, 3-((2S)-3-(8-(benzofuran-2-ylsulfonyl)-1-oxa-8-azaspiro[4.5]decan-3-ylamino)-2-hydroxypropoxy)-N-methylbenzenesulfonamide], 7.93. In the case of `CNS(=O)(=O)c1cccc(OC[C@@H](O)CN[C@H]2COC3(CCN(c4nccc(C(F)(F)F)n4)CC3)C2)c1` [Compound 574, 3-((S)-2-hydroxy-3-((R)-8-(4-(trifluoromethyl)pyrimidin-2-yl)-1-oxa-8-azaspiro[4.5]decan-3-ylamino)propoxy)-N-methylbenzenesulfonamide], the pIC50 is 6.22.

Consider `O=S(=O)(NCC1CC1)c1cccc(OC[C@@H](O)CNC2COC3(CCN(S(=O)(=O)c4ccc5ccccc5c4)CC3)C2)c1` (stereo partly drawn) [Compound 8, N-(cyclopropylmethyl)-3-((2S)-2-hydroxy-3-(8-(naphthalen-2-ylsulfonyl)-1-oxa-8-azaspiro[4.5]decan-3-ylamino)propoxy)benzenesulfonamide], for which the pIC50 is 7.41.

Broadly, the pIC50 is the negative decadic logarithm of the IC50, by convention in mol/L.
